Laboratory results from patent US10357576B2, “18F-labelled folate/antifolate analogues” (MERCK & CIE, priority 2012, dated 2019).

Biological target: T1, Folate receptor (Homo sapiens, UniProt P15328)
T1 construct: host or cells: KB cells (human cervical carcinoma cell line, HeLa subclone)
Test: Folate receptor binding affinity (displacement of ^3H-folic acid on KB tumor cells)
Settings: ^3H-folic acid 0.84 nM, 4° C., 30 min, read-out: FR-binding affinity IC50
Description: Cell Culture: KB cells (human cervical carcinoma cell line, HeLa subclone; ACC-136) were purchased from the German Collection of Microorganisms and Cell Cultures (DSMZ, Braunschweig, Germany). The cells were cultured as monolayers at 37° C. in a humidified atmosphere containing 5% CO2. […] FFRPMI medium was supplemented with 10% heat-inactivated fetal calf serum (FCS, as the only source of folate), L-glutamine and antibiotics (penicillin/streptomycin/fungizone). Routine culture treatment was performed twice a week with EDTA (2.5 mmol/l) in PBS.
After incubation, Eppendorf tubes containing the cell suspensions were centrifuged at 4° C. for 5 min and the supernatant was removed. By addition of 0.5 ml of NaOH 1 M the cell pellets were lysed and transferred into scintillation tubes containing 5 ml of scintillation cocktail (Ultima Gold; Perkin Elmer). Radioactivity was measured using a liquid scintillation analyzer (Tri-Carb 1900 TR, Packard) and an inhibitory concentration of 50% was determined from displacement curves using GraphPad Prism (version 5.01) software.

T1 sequence (P15328 25-234): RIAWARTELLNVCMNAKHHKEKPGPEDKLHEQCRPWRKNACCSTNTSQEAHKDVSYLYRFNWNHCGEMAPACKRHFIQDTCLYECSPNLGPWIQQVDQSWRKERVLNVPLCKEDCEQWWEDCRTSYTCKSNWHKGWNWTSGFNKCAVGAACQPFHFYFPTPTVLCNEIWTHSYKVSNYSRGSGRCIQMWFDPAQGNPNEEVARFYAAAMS

- IC50: 0.81 ± 0.18 nM
SMILES: Nc1nc2ncc(CNc3ccc(C(=O)N[C@@H](CCC(=O)O)C(=O)O)c(F)n3)nc2c(=O)[nH]1 [3′-aza-2′-fluorofolic acid]
